Where two headings read alike, the source gives them in different places.
Legend:
[1] = Cytotoxicity assay, alamarBlue; type: cell-based; settings: mouse, 37 °C, mean ± SD, read-out: Murine Macrophage J774.A1 CC50
Experimental: (§1) Evaluation of in vitro toxicity was carried out using the murine macrophage J774A.1 cell line (ATCC # TIB-67, LG Promochem, Barcelona, Spain) which was routinely cultured in Dulbecco’s Modified Eagle’s medium (DMEM, w/v) supplemented with 10% (v/v) FBS and 10 µg/mL of gentamicin (Sigma–Aldrich, Madrid, Spain), at 37 °C in a 5% CO2 atmosphere as previously described.
(§2) Cytotoxicity of the compounds was evaluated using toxicity assays established in our laboratory based on the evaluation of the toxicity induced in a murine macrophages J774.A1 cell line (ATCC® TIB-67™). Concisely, different concentrations of the ICZs were incubated with the cell line, and alamarBlue® reagent (10% of medium volume) was placed in each well and incubated for 24 h, at 37 °C under 5% CO2 conditions. Results were examined as described in Section 2.4.1.

[2] = tested on: Naegleria fowleri ATCC 30808 trophozoites; experiment: In vitro amoebicidal activity, alamarBlue colorimetric assay, trophozoites; settings: for SI (CC50/IC50): CC50 J774A.1 / IC50 N. fowleri ATCC 30808; for IC50: Naegleria fowleri
Experimental: (§3) Amoebae were grown at 37 °C in axenic conditions in 2% (w/v) bactocasitone medium (Thermo Fisher Scientific, Madrid, Spain) supplemented with 10% (v/v) foetal bovine serum (FBS), […] of penicillin G and 0,5 mg/mL of streptomycin sulphate (Sigma-Aldrich, Madrid, Spain). As required by the Spanish Government biosafety guidelines for this pathogen, amoebic strains were cultured in a biological security facility level 3 at the Instituto Universitario de Enfermedades Tropicales y Salud Pública de Canarias, Universidad de La Laguna.
(§4) The in vitro activity of the four ICZs included in this study was evaluated against trophozoites of two Naegleria fowleri type strains using a colorimetric assay. Amoebae (2 × 10^5 cells/mL) were placed in a sterile 96-well microtiter plate. Next, 50 μL of a serial dilution of each of the ICZs (in N. fowleri culture medium) was added to the plate. In all the activity assays, 2% DMSO was used to dissolve the highest dose of the molecules to prevent generation of any effects in the amoebic cells. Negative controls were also included in the assays, consisting of the addition of medium alone to the seeded trophozoites as previously described. Miltefosine and amphotericin B were used as positive controls whereas the addition of medium alone to the seeded trophozoites was considered as the negative control. Lastly, 10% of the alamarBlue® reagent was placed in each well, and plates were incubated with slight agitation for 48 h at 37 °C. After that, activity plates were evaluated with an EnSpire® Multimode Plate Reader (Perkin Elmer, Madrid, Spain) using a wavelength of 570 nm and a reference wavelength of 630 nm.
(§5) The IC90 values of the compounds were calculated using a GraphPad calculator (GraphPad Software, San Diego, CA, USA) based on the calculated IC50 and the Hill Slope (H). All experiments were performed in triplicate, and the mean values were also calculated.

[3] = tested on: Naegleria fowleri ATCC 30215 trophozoites; experiment: as above; type: cell-based; settings: for IC50: ATCC30215, trophozoites, 48 h, 37 °C, mean ± SD, read-out: N. fowleri ATCC 30215 IC50
Experimental: as §3, §4, §5

[4] = tested on: murine macrophage J774A.1 cell line; experiment: Cytotoxicity assay, alamarBlue; type: cell-based; settings: 24 h, 37 °C, mean ± SD; read-out: Murine Macrophage J774.A1 CC50
Experimental: as §1, §2

[5] = tested on: Naegleria fowleri trophozoites; experiment: Intracellular ROS generation, CellROX Deep Red assay; type: cell-based; settings: IC90, 24 h; similar for both strains
Experimental: Next, cells were exposed to 5 μM CellROX Deep Red for 30 min at 37 °C in the dark and observed after using the EVOS FL Cell Imaging System AMF4300 (Life Technologies, Madrid, Spain). The presence of intracellular ROS was shown by the detection of high red fluorescence in the cells.

[6] = tested on: Naegleria fowleri trophozoites; experiment: Detection of DNA/chromatin condensation, Hoechst 33342/propidium iodide double stain; type: cell-based; settings: IC90, 24 h; similar for both strains
Description: The double-stain apoptosis detection kit constituted by Hoechst 33342 and propidium iodide (PI) (Life Technologies, Madrid. Spain) and an EVOS FL Cell Imaging System AMF4300 (Life Technologies, Madrid, Spain) were used in these experiments as per the manufacturer’s instructions. […] The assay is able to separate three groups of cell populations: dead cells which show an intense red and low-blue fluorescence; healthy cells showing a low level of fluorescence, and cells in PCD presenting intense blue fluorescence (condensed chromatin/DNA).

[7] = tested on: Naegleria fowleri trophozoites; experiment: Cellular membrane damage, SYTOX Green assay; type: cell-based; settings: IC90, 24 h; both strains
Experimental: The SYTOX Green assay (Life Technologies, Madrid, Spain) allows the detection of alterations in the permeability of the cell membrane. The SYTOX Green dye binds to DNA, showing intense green fluorescence, only if the plasmatic membrane is damaged and allows it to enter the cytoplasm. […] After 24 h, 1 μM SYTOX Green (final concentration) was added to the cell culture and incubated for 15 min. Next, cells were examined in an EVOS FL Cell Imaging System AMF4300 (Life Technologies, Madrid, Spain).

[8] = tested on: Naegleria fowleri trophozoites; experiment: Mitochondrial membrane potential, JC-1 assay; type: cell-based; settings: IC90, 24 h; similar for both strains
Experimental: The evaluation of mitochondrial function disruption in STS-treated amoebae was carried out using the Celltiter-Glo® Luminescent Cell Viability Assay (Promega Biotech Ibérica, Madrid, Spain) and the JC-1 Mitochondrial Membrane Potential Detection Kit (Cayman Chemicals, Vitro SA, Madrid, Spain). The first kit detects the levels of ATP in STS-treated cells in comparison to non-treated cells.
Images were captured using an EVOS FL Cell Imaging System AMF4300 (Life Technologies, Madrid, Spain). The obtained staining pattern permitted the identification of two groups in a cellular population: live cells which would show only red fluorescence and cells presenting low mitochondrial membrane potential (undergoing PCD) which would show an intense level of green and red fluorescence.

[9] = ATCC30808, 48 h, read-out: N. fowleri ATCC 30808 IC50

| SMILES | SI (CC50/IC50) [2] | IC50 [2, 9] | Activity against N. fowleri, in words [2] | CC50 at 24 h ([1]; J774A.1 macrophage cell line) | also measured |
| --- | --- | --- | --- | --- | --- |
| COC(=O)C1(O)CC2OC1(C)n1c3ccccc3c3c4c(c5c6ccccc6n2c5c31)C(=O)NC4 (centres unmarked) [K252a (6), K252a] | 3.2 | 0.34 ± 0.09 µM |  |  | CC50 at 24 h [1]: 1.07 ± 0.21 µM; IC50 ([2]; ATCC30808, read-out: Activity (IC50) N. fowleri ATCC 30808, text): 0.338 ± 0.09 µM; IC50 [3]: 0.12 ± 0.03 µM |
| CN[C@@H]1C[C@H]2O[C@@](C)([C@@H]1OC)n1c3ccccc3c3c4c(c5c6ccccc6n2c5c31)C(=O)NC4=O [7OSTS (2), 7-oxostaurosporine] | 4.1 | 1.28 ± 0.35 µM |  |  | CC50 [4]: 5.2 ± 1.75 µM; IC50 [3]: 1.07 ± 0.23 µM |
| CO[C@H]1[C@H](O)[C@@H](O)[C@H](n2c3c(Cl)cccc3c3c4c(c5c6cccc(Cl)c6[nH]c5c32)C(=O)NC4=O)O[C@@H]1CO [Rebeccamycin (5), rebeccamycin] |  | > 20 µM | not active |  |  |
| O=C1NCc2c1c1c3ccccc3[nH]c1c1[nH]c3ccccc3c21 [K252c (8), K252c] |  | > 20 µM | no activity was observed |  |  |
| O=C1NC(=O)c2c1c1c3ccccc3[nH]c1c1[nH]c3ccccc3c21 [Arcyriflavin A (9), arcyriaflavin A] |  | > 20 µM | no activity was observed |  |  |
| CO[C@@H]1C(=O)C[C@H]2O[C@]1(C)n1c3ccccc3c3c4c(c5c6ccccc6n2c5c31)C(=O)NC4 [4′D4′OSTS (3), 4′-demethylamino-4′-oxostaurosporine] | >1.9 | 10.8 ± 2.92 µM | only active against the N. fowleri ATCC 30808 strain | > 20 µM |  |
| CC12OC(CC1(O)C(=O)O)n1c3ccccc3c3c4c(c5c6ccccc6n2c5c31)CNC4=O (centres unmarked) [K252b (7), K252b] |  | > 20 µM |  |  |  |
| CCCCCCCCCCCCCCCCOP(=O)([O-])OCC[N+](C)(C)C [Miltefosine, miltefosine] | 3.3 |  |  | 128 ± 8.85 µM |  |
| C[C@@H]1[C@H](O)[C@@H](C)/C=C/C=C/C=C/C=C/C=C/C=C/C=C/[C@H](O[C@@H]2O[C@H](C)[C@@H](O)[C@H](N)[C@@H]2O)C[C@@H]2O[C@](O)(C[C@@H](O)C[C@@H](O)[C@H](O)CC[C@@H](O)C[C@@H](O)CC(=O)O[C@H]1C)C[C@H](O)[C@H]2C(=O)O [Amphotericin B] | ≥1666.7 | 0.12 ± 0.03 µM |  | ≥ 200 µM | IC50 [3]: 0.16 ± 0.02 µM |
| CN[C@@H]1C[C@H]2O[C@@](C)([C@@H]1OC)n1c3ccccc3c3c4c(c5c6ccccc6n2c5c31)C(=O)NC4 [STS (1), staurosporine] |  |  |  |  | Intracellular ROS (CellROX Deep Red) [5]: Increased levels of intracellular ROS; Chromatin condensation (Hoechst stain) [6]: the nuclei are intense blue; Plasmatic membrane permeabilization (SYTOX Green) [7]: caused plasmatic membrane permeabilization in both strains; IC90 ([3]; ATCC30215, calculated from IC50 and Hill slope, table footnote, unit inferred, read-out: IC90 N. fowleri ATCC 30215): 0.97 µM; Mitochondrial membrane potential (JC-1) [8]: Mitochondrial potential collapse was observed |
| COC1=C(C)O[C@@H]2C[C@@]1(OC)n1c3ccccc3c3c4c(c5c6ccccc6n2c5c31)C(=O)NC4 [SCZ B (4), streptocarbazole B] | >1.7 | 11.5 ± 0.31 µM | only active against the N. fowleri ATCC 30808 strain | > 20 µM |  |
